In patent EP1130064A1, “DYE COMPOSITION, INK COMPOSITION, AND INK-JET RECORDING METHOD” (Nippon Kayaku Kabushiki Kaisha, priority 1998, dated 2000):

Tests used:
[1] = Water fastness of recorded image (stirred in water); assay type: physicochemical; details: stirred in water 2 min, dried; for Water fastness Judgment: JIS fading gray scale; for Water fastness (ΔE): color difference before/after
Text: (§1) By using an ink-jet printer (Trade name: PICTY80L, made by NEC KK), ink-jet printing was done on five types of recording materials: a plain paper(Printer Paper A4, TLB5A4S, made by Canon KK), a special paper A(Color BJ Paper LC101, made by Canon KK), a special paper B(Color Image Jet Coat Paper STX73A4, made by Sharp KK), a glossy film A(Special Glossy Film MJA4SP6, made by Seiko-Epson KK), and a glossy film B(Color BJ Photo Sheet Film CA-101, made by Canon KK). The test results on hue, vividness, light fastness, and water fastness in recorded images pictured by the water-based yellow ink composition ( X=H, M=Na in Formula (1)) of the present invention are shown in Table 2.
(§2) An ink composition for the comparative example was prepared same as in the above (A), but the ink composition contained C.I. Acid Yellow 17, an azo dye generally applied for an ink-jet yellow dye in place of the dye composition in Table 1 and was adjusted to coincide in optical density with the yellow ink of the present invention. The test results on hue, vividness, light fastness, and water fastness in recorded images pictured by the ink composition for the comparative example also are shown in Table 2. Hue and vividness in the color sample of JNC's JAPAN COLOR are shown in Table 2 (The paper of the color sample Japan Color Standard Paper a paper). (C) Assessment of recorded image
A recorded material was set in a beaker filled with water, stirred for 2 min and dried. The color fading of the recorded image after treatment was determined based on the JIS fading gray scale. Color difference (ΔE) between before and after the treatment also was determined by using the above colorimetry.

[2] = Light fastness of recorded image (carbon arc fade meter); assay type: physicochemical; details: carbon arc 40 hours; for Light fastness Judgment: blue scale grade JIS L-0841; for Light fastness (ΔE): color difference before/after
Text: as §1, §2
A carbon arc fade meter ( by Suga Testing Machine Co.) was used to irradiate carbon arc on the recorded image for 40 hours. Grade was determined based on blue scale grade as prescribed in JIS L-0841. Color difference (ΔE) between before and after the irradiation also was determined by using the above colorimetry.

C.I. Acid Yellow 17 [Comparative example 1]
Water fastness Judgment ([1]; Glossy film A): Grade4-5
Water fastness (ΔE) ([1]; Glossy film A): 6.2
Water fastness Judgment ([1]; Glossy film B): Grade4-5
Water fastness (ΔE) ([1]; Glossy film B): 4.7
Water fastness Judgment ([1]; Plain paper): Grade 1
Water fastness (ΔE) ([1]; Plain paper): 76.8
Water fastness Judgment ([1]; Special paper A): Grade 3
Water fastness (ΔE) ([1]; Special paper A): 15.7
Water fastness Judgment ([1]; Special paper B): Grade 2
Water fastness (ΔE) ([1]; Special paper B): 39.6
Light fastness Judgment ([2]; Glossy film A): Grade3-4
Light fastness (ΔE) ([2]; Glossy film A): 17.6
Light fastness Judgment ([2]; Glossy film B): Grade 2
Light fastness (ΔE) ([2]; Glossy film B): 64.6
Light fastness Judgment ([2]; Plain paper): Grade4-5
Light fastness (ΔE) ([2]; Plain paper): 4.5
Light fastness Judgment ([2]; Special paper A): Grade 3
Light fastness (ΔE) ([2]; Special paper A): 33.5
Light fastness Judgment ([2]; Special paper B): Grade 3
Light fastness (ΔE) ([2]; Special paper B): 29.4
